Test results from publication PMC7377239, “Cardiovascular Effects of Polychlorinated Biphenyls and Their Major Metabolites” (Environmental Health Perspectives, 2020).
Counter-ions that a name gives are not always drawn. Like-named read-outs stand apart in the source and are kept apart here.

Key:
[1] = test system: iCell endothelial cells (human iPSC-derived ECs); assay: Tube formation (tubulogenesis) assay in iCell endothelial cells, 18 h; format: cell-based; conditions: Homo sapiens, Endothelial cell, 18 hr; for activity at 0.1 µM: 0.10 µM
Summary of the method: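 Tube formation was measured by calcein AM imaging after overnight compound exposure (37°C, 0.5% DMSO vehicle) of human iPSC-derived ECs, 7,500/well, on reduced-growth-factor Geltrex in starvation medium. Vehicle-normalized data fitted to four-parameter logistic; POD set at one vehicle SD; without response, 100 μM taken as NOAEL.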

[2] = test system: HUVECs; assay: Tube formation (tubulogenesis) assay in HUVECs, 18 h; format: cell-based, human; conditions: Homo sapiens, HUVEC, 18 h, HUVEC; for activity at 0.1 µM: 0.10 µM
Summary of the method: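 HUVECs (passage 1–5) seeded on reduced-growth-factor basement membrane and exposed to compounds overnight at 37°C, 5% CO2, in 2× maintenance medium with 12.5 ng/mL VEGF; 0.5% DMSO vehicle. Calcein AM-stained tube networks imaged and analysed; vehicle-normalized readouts fit to four-parameter logistic, POD set at one SD of vehicle means.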

[3] = iPSC-EC tube formation, 0.00 µM control = 100.00, read-out: endo.mtl.18hr
[4] = iPSC-EC tube formation, 0.00 µM control = 100.00, read-out: endo.tlps.18hr
[5] = iPSC-EC tube formation, 0.00 µM control = 100.00, read-out: endo.tta.18hr
[6] = iPSC-EC tube formation, 0.00 µM control = 100.00, read-out: endo.ttl.18hr
[7] = HUVECs, 0.00 µM = 100.00, read-out: huvec.mtl.18hr
[8] = HUVECs, 0.00 µM = 100.00, read-out: huvec.tlps.18hr
[9] = HUVECs, 0.00 µM = 100.00, read-out: huvec.tta.18hr
[10] = HUVECs, 0.00 µM = 100.00, read-out: huvec.ttl.18hr

Oc1ccccc1-c1ccc(Cl)cc1 [2'-OH-PCB 3]
minimal effective concentration ([1]; endothelial cells (endo), tube formation mtl, read-out: POD endo.mtl.18hr): 13.4 µM
minimal effective concentration ([1]; endothelial cells (endo), tube formation tlps, read-out: POD endo.tlps.18hr): 9.27 µM
minimal effective concentration ([1]; endothelial cells (endo), tube formation tta, read-out: POD endo.tta.18hr): 29.9 µM
minimal effective concentration ([1]; endothelial cells (endo), tube formation ttl, read-out: POD endo.ttl.18hr): 23.1 µM
minimal effective concentration ([2]; tube formation mtl, read-out: POD huvec.mtl.18hr): 100 µM
minimal effective concentration ([2]; tube formation tlps, read-out: POD huvec.tlps.18hr): 0.57 µM
minimal effective concentration ([2]; tube formation tta, read-out: POD huvec.tta.18hr): 100 µM
minimal effective concentration ([2]; tube formation ttl, read-out: POD huvec.ttl.18hr): 100 µM

O=S(=O)(O)Oc1cc(Cl)ccc1-c1ccccc1 [2-yl PCB 3 sulfate]
activity at 0.01 µM [1, 3]: 97.5%
activity at 0.01 µM [1, 4]: 97.8%
activity at 0.01 µM [1, 5]: 134%
activity at 0.01 µM [1, 6]: 124%
activity at 0.1 µM [1, 3]: 93.9%
activity at 0.1 µM [1, 4]: 117%
activity at 0.1 µM [1, 5]: 102%
activity at 0.1 µM [1, 6]: 93.2%
activity at 1 µM [1, 3]: 91.4%
activity at 1 µM [1, 4]: 118%
activity at 1 µM [1, 5]: 90.6%
activity at 1 µM [1, 6]: 83.8%
activity at 10 µM [1, 3]: 83.6%
activity at 10 µM [1, 4]: 89.9%
activity at 10 µM [1, 5]: 60.9%
activity at 10 µM [1, 6]: 58.8%
activity at 100 µM [1, 3]: 106%
activity at 100 µM [1, 4]: 86.3%
activity at 100 µM [1, 5]: 92.2%
activity at 100 µM [1, 6]: 89%
minimal effective concentration ([1]; iPSC-EC tube formation, top concentration 100.00 µM, read-out: endo.mtl.18hr POD): 100 µM
minimal effective concentration ([1]; iPSC-EC tube formation, top concentration 100.00 µM, read-out: endo.tlps.18hr POD): 100 µM
minimal effective concentration ([1]; iPSC-EC tube formation, top concentration 100.00 µM, read-out: endo.tta.18hr POD): 100 µM
minimal effective concentration ([1]; iPSC-EC tube formation, top concentration 100.00 µM, read-out: endo.ttl.18hr POD): 100 µM
activity at 0.01 µM [2, 7]: 100%
activity at 0.01 µM [2, 8]: 98.8%
activity at 0.01 µM [2, 9]: 108%
activity at 0.01 µM [2, 10]: 108%
activity at 0.1 µM [2, 7]: 99.3%
activity at 0.1 µM [2, 8]: 101%
activity at 0.1 µM [2, 9]: 147%
activity at 0.1 µM [2, 10]: 147%
activity at 1 µM [2, 7]: 97.8%
activity at 1 µM [2, 8]: 116%
activity at 1 µM [2, 9]: 132%
activity at 1 µM [2, 10]: 128%
activity at 10 µM [2, 7]: 90.4%
activity at 10 µM [2, 8]: 99.7%
activity at 10 µM [2, 9]: 90.3%
activity at 10 µM [2, 10]: 93.2%
activity at 100 µM [2, 7]: 74.5%
activity at 100 µM [2, 8]: 59.6%
activity at 100 µM [2, 9]: 61.5%
activity at 100 µM [2, 10]: 62%
minimal effective concentration ([2]; HUVECs, top concentration 100.00 µM, read-out: huvec.mtl.18hr POD): 10.7 µM
minimal effective concentration ([2]; HUVECs, top concentration 100.00 µM, read-out: huvec.tlps.18hr POD): 37.4 µM
minimal effective concentration ([2]; HUVECs, top concentration 100.00 µM, read-out: huvec.tta.18hr POD): 100 µM
minimal effective concentration ([2]; HUVECs, top concentration 100.00 µM, read-out: huvec.ttl.18hr POD): 100 µM
